According to publication PMC4201354 (The Journal of Organic Chemistry, 2014):

Experiments:
Mtb GlgE = biological target: T1, Mtb GlgE (Mycobacterium tuberculosis, UniProt P9WQ17); experiment: GlgE-coupled enzyme assay utilizing PNP; assay type: biochemical
T1 sequence (P9WQ17 1-701): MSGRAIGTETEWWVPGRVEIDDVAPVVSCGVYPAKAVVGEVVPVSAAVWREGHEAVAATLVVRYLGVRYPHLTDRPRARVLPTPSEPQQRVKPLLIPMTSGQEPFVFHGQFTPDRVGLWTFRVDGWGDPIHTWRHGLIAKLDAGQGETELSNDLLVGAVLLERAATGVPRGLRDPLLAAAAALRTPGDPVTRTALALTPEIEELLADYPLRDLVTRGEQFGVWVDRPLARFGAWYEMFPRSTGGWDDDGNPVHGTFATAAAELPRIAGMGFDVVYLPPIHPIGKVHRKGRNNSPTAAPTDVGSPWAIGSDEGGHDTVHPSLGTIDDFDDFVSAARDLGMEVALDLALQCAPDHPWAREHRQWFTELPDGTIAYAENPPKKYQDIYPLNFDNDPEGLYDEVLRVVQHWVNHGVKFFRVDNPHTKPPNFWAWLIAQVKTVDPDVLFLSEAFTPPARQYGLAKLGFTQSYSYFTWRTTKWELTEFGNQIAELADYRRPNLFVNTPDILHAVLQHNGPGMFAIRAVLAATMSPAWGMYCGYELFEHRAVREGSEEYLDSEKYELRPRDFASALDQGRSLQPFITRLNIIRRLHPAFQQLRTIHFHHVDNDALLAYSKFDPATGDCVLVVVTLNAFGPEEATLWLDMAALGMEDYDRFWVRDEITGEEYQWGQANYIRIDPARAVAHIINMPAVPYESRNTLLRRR

yeast α-glucosidase = conditions: against yeast α-glucosidase; cited from earlier work

| Compound | Ki (Mtb GlgE) | Ki (yeast α-glucosidase) |
| --- | --- | --- |
| OC[C@H]1N[C@H](CO)[C@@H](O[C@H]2O[C@H](CO)[C@@H](O)[C@H](O)[C@H]2O)[C@@H]1O [Compound 9, 2,5-dideoxy-3-O-α-D-glucopyranosyl-2,5-imino-D-mannitol] | 237 ± 27 µM | – |
| 5-amino-5-deoxy-D-glucose [Compound 1] | – | 6.3 µM |
